Source: patent US20240352402A1, “ENGINEERED BACTERIA FOR BIOSYNTHESIS OF PEPTIDE-BASED QUORUM SENSING INHIBITORS” (Wisconsin Alumni Research Foundation, priority 2023, published 2024)

Tested on: S. aureus agr quorum sensing system (agr specificity groups I, II, III and IV)
Assay: Staphylococcus aureus agr reporter (antagonism) assay with pDB59 YFP reporter strains
Type: cell-based
Conditions: high concentrations, WT supernatant as vehicle control
Method: Supernatant samples were lyophilized in a FreeZone Freeze Dryer (Labconco). Fluorescence (EX 500 nm/EM 540 nm) and OD600 were read on a Synergy™ 2 plater reader (BioTek). Data was analyzed using Prism 9 software (GraphPad by Dotmatics).
In both P. megaterium and B. subtilis strains produced in Example 1, AIP production was induced by diluting overnight cultures 1:100 in LB containing 1% xylose. After 8 hours the cultures were centrifuged, and the supernatant was purified with a 0.22 μm filter. The supernatant was then lyophilized and reconstituted in sterile milli-Q water at 10× the original concentration.
Groups I-IV S. aureus strains containing the pDB59 plasmid were used to conduct agr antagonism assays. Assays were conducted as previously described,^1 with the following adjustments: 10×WT P. megaterium or B. subtilis supernatant was used as a vehicle control instead of DMSO and 20 μl of sample/vehicle control and 180 μl of 1:50 overnight S. aureus in brain heart infusion (BHI) growth medium was added to each well for inducible strains P. megaterium (FIG. 2) and B. subtilis (FIG. 3) from Example 1 and constitutive strain B. subtilis (FIG. 5) from Example 2.

AIP-III D4A
inhibition of agr activity in reporter assay (lyophilized B. subtilis supernatant (10x), n=9, FIG. 3): inhibit agr
inhibition of agr activity in reporter assay (lyophilized P. megaterium supernatant (10x), n=3, FIG. 2): inhibit agr
